Reference: US20100016328A1, “PTERIN ANALOGS” (BioMarin Pharmaceutical, Inc., priority 2007, published 2010)
Where a name gives a salt, the structure may show the parent alone. Read-outs that look alike come from different tables or passages of the source.

Tests used:
[1] = tested on: human umbilical vein endothelial cells (HUVEC); assay: Nitric oxide production (nitrite+nitrate, Griess reaction) in NAS-pretreated HUVEC; assay type: cell-based; conditions: HUVEC pretreated with 3 mM NAS; for NO production (nitrite+nitrate): 50, 100, or 200 mM compound, 5-22 hours
Method: Cultured human umbilical vein endothelial cells (HUVEC) were pretreated with 3 mM N-acetylserotonin (NAS), an inhibitor of the enzyme sepiapterin reductase. Inhibition of this pathway typically results in loss of endogenous BH4, depressing the endogenous eNOS activity far below normal and provides an assay to test for restoration of eNOS activity.
Thus, subconfluent HUVECs were seeded in a 24-well plate and grown overnight in EGM2 medium (full growth medium). The next morning, fresh medium was added to the cells (300 μL/well), 3 mM NAS was added to the cells to decrease the endogenous BH4 levels. After an incubation of 1.5 hours, 50, 100, or 200 mM BH4 or compound of Example 5, Example 6, Example 7, or Example 9 were added to the cells. The cells were allowed to react with the BH4 or the compound of Example 5, Example 7, or Example 9 for 5-22 hours. The production of NO was then measured as changes in total (nitrite+nitrate) by the Griess reaction subsequent to nitrate reductase treatment. The percentage of nitrite+nitrate with BH4 or compound of Example 5, Example 7, or Example 9 is shown in FIG. 7 (after 5 hours); FIG. 8 (after 17 hours); and FIG. 9 (after 22 hours). The results for Example 6 are shown in FIG. 10 (after 5 hours) and FIG. 11 (after 20 hours).

[2] = Pharmacokinetics of BH4 and BH4 analogs given by oral gavage to monkeys; assay type: in vivo; conditions: fasted cynomolgus monkeys; for AUC0-t / Cmax: equivalent of 80 mg of BH4, n=3, plasma over 25 hours, standard deviation in parenthesis; for Tmax: equivalent of 80 mg of BH4, n=3, standard deviation in parenthesis
Method: Fasted cynomolgus monkeys were given BH4 and BH4 analogs by oral gavage (n=3), such that the amount of the analog administered was the equivalent of 80 mg of BH4. The plasma concentrations of the BH4, when administered directly, or the analogs was measured at various time points over a 25 hour period. The PK data is also shown in the following table, wherein the number in parenthesis is the standard deviation.

[3] = Stability in simulated gastric fluid; assay type: in vitro ADME; conditions: concentration of compound remaining over a 60 minute period; FIG. 5
Method: (§1) The stability of various compounds as disclosed herein were tested in human and rat and in simulated gastric fluid. Each compound was tested over an hour period for concentration of the compound remaining at each time point. The results are shown in FIGS. 3 (human plasma stability), 4 (rat plasma stability), and 5 (simulated gastric fluid stability) for the compounds of Example 2, 3, 4, and 20.

[4] = Stability in human plasma; assay type: in vitro ADME; conditions: concentration of compound remaining over a 60 minute period; FIG. 3
Method: as §1

[5] = Stability in rat plasma; assay type: in vitro ADME; conditions: concentration of compound remaining over a 60 minute period; FIG. 4
Method: as §1

[6] = design: species or system male Sprague Dawley rats; conditions: male, Sprague Dawley, rat, in vivo, po
Method: This example allows for comparison of the pharmacokinetics of the analog (Compound I) versus that of BH4 following single oral administration in rats.
With respect to the administered BH4, the maximum total biopterin concentrations in plasma 2 hrs and 1 hr post-dosing were 108 ng/ml (i.e., about 3 fold the endogenous level) and 1227 ng/ml (i.e., about 30 fold the endogenous level), respectively. […] The ratio of reduced biopterin to total biopterins in plasma (i.e., the reduced-form ratio) was relatively static (73%-96%).

[7] = cynomolgus monkey, plasma, read-out: Tmax

| AUC0-t [2] | Cmax [2] | Tmax [2] | SMILES | further results |
| --- | --- | --- | --- | --- |
| – | – | – | CCC(C)[C@H](N)C(=O)O[C@@H](C)[C@H](O)[C@H]1CNc2nc(N)[nH]c(=O)c2N1 (stereo in doubt) [Example 6, 2-Amino-3-methyl-pentanoic acid 2-(2-amino-4-oxo-3,4,5,6,7,8-hexahydro-pteridin-6-yl)-2-hydroxy-1-methyl-ethyl ester] | effect on NAS-treated cells compared with Example 5 [1]: similar, if slightly reduced, effect; NO production (nitrite+nitrate) [1]: increased NO production in a dose-dependent manner |
| 13.7 ng·h/mL | 2.2 ng/mL | 6.0 h | CC(C)[C@H](N)C(=O)N1c2c(nc(N)[nH]c2=O)NC[C@@H]1[C@@H](O)[C@H](C)O (stereo in doubt) [Example 13, 2-Amino-5-(2-amino-3-methyl-butyryl)-6-(1,2-dihydroxy-propyl)-5,6,7,8-tetrahydro-1H-pteridin-4-one hydrochloride] | – |
| 63.2 (25.6) ng hr/mL | 5.23 (2.1) ng/mL | 12.1 (11.9) hr | CC[C@H](C)[C@H](N)C(=O)N1c2c(nc(N)[nH]c2=O)NC[C@@H]1[C@@H](O)[C@H](C)O (stereo in doubt) [Example 14, 2-Amino-5-(2-amino-3-methyl-pentanoyl)-6-(1,2-dihydroxy-propyl)-5,6,7,8-tetrahydro-1H-pteridin-4-one hydrochloride] | – |
| 36.8 (37.6) ng hr/mL | 5.7 (1.7) ng/mL | 12.0 (10.4) hr | C[C@H](O)[C@H](O)[C@H]1CNc2nc(N)[nH]c(=O)c2N1C(=O)[C@@H](N)CCCCN (stereo in doubt) [Example 15, 2-Amino-5-(2,6-diamino-hexanoyl)-6-(1,2-dihydroxy-propyl)-5,6,7,8-tetrahydro-1H-pteridin-4-one dihydrochloride] | – |
| 88.1 (31.5) ng hr/mL | 7.63 (2.7) ng/mL | 6.0 (0)^ hr | C[C@H](O)[C@H](O)[C@H]1CNc2nc(N)[nH]c(=O)c2N1C(=O)[C@@H]1CCCN1 (stereo in doubt) [Example 16, 2-Amino-6-(1,2-dihydroxy-propyl)-5-(pyrrolidine-2-carbonyl)-5,6,7,8-tetrahydro-1H-pteridin-4-one dihydrochloride] | – |
| – | – | – | C[C@H](O)[C@H](O)[C@H]1CNc2nc(N)[nH]c(=O)c2N1C(=O)OCc1ccccc1 (stereo in doubt) [Example 20, 2-Amino-6-(1,2-dihydroxy-propyl)-4-oxo-4,6,7,8-tetrahydro-1H-pteridine-5-carboxylic acid benzyl ester] | stability in simulated gastric fluid [3]: high level of stability; stability in human plasma [4]: high level of stability; stability in rat plasma [5]: high level of stability |
| 288 (15.5) ng hr/mL | 42.0 (12.6) ng/mL | 3.0 (0)^ hr | C[C@H](O)[C@H](O)[C@H]1CNc2nc(N)[nH]c(=O)c2N1 [BH4, Tetrahydrobiopterin] | ratio of reduced biopterin to total biopterins in plasma (reduced-form ratio) [6]: 73-96%; maximum total biopterin concentration relative to the endogenous level ([6]; 10 mg/kg): about 3 fold; time of maximum total biopterin concentration post-dosing ([6]; 10 mg/kg): 2 h; time of return to the endogenous level post-dosing ([6]; 10 mg/kg): 9 h; maximum total biopterin concentration relative to the endogenous level ([6]; 100 mg/kg): about 30 fold; time of maximum total biopterin concentration post-dosing ([6]; 100 mg/kg): 1 h; time of return to the endogenous level post-dosing ([6]; 100 mg/kg): 24 h |
| – | – | – | CC(=O)O[C@@H]([C@H](C)OC(C)=O)[C@H]1CNc2nc(N)[nH]c(=O)c2N1C(C)=O [Example 2, Acetic acid 2-acetoxy-1-(5-acetyl-2-amino-4-oxo-3,4,5,6,7,8-hexahydro-pteridin-6-yl)-propyl ester] | stability in simulated gastric fluid [3]: high level of stability; stability in human plasma [4]: high level of stability; stability in rat plasma [5]: high level of stability |
| – | – | – | CCC(=O)O[C@@H]([C@H](C)OC(=O)CC)[C@H]1CNc2nc(N)[nH]c(=O)c2N1C(=O)CC [Example 3, Propionic acid 1-(2-amino-4-oxo-5-propionyl-3,4,5,6,7,8-hexahydro-pteridin-6-yl)-2-propionyloxy-propyl ester] | stability in simulated gastric fluid [3]: high level of stability; stability in human plasma [4]: high level of stability; stability in rat plasma [5]: high level of stability |
| – | – | – | CCCC(=O)O[C@@H]([C@H](C)OC(=O)CCC)[C@H]1CNc2nc(N)[nH]c(=O)c2N1C(=O)CCC [Example 4, Butyric acid 1-(2-amino-5-butyryl-4-oxo-3,4,5,6,7,8-hexahydro-pteridin-6-yl)-2-butyryloxy-propyl ester] | stability in simulated gastric fluid [3]: high level of stability; stability in human plasma [4]: high level of stability; stability in rat plasma [5]: high level of stability |
| 572 (148) ng hr/mL | 82.3 (27.2) ng/mL | – | C[C@H](OC(=O)[C@@H](N)CCCCN)[C@H](O)[C@H]1CNc2nc(N)[nH]c(=O)c2N1 [Example 7, 2,6-Diamino-hexanoic acid 2-(2-amino-4-oxo-3,4,5,6,7,8-hexahydro-pteridin-6-yl)-2-hydroxy-1-methyl-ethyl ester tri-hydrochloride] | effect on NAS-treated cells compared with Example 5 [1]: similar, if slightly reduced, effect; NO production (nitrite+nitrate) [1]: increased NO production in a dose-dependent manner; Tmax [2, 7]: 2.67 h |
| 384 (214) ng hr/mL | 61.9 (34.8) ng/mL | 2.0 (0)^ hr | C[C@H](OC(=O)[C@@H]1CCCN1)[C@H](O)[C@H]1CNc2nc(N)[nH]c(=O)c2N1 [Example 9, Pyrrolidine-2-carboxylic acid 2-(2-amino-4-oxo-3,4,5,6,7,8-hexahydro-pteridin-6-yl)-2-hydroxy-1-methyl-ethyl ester dihydrochloride] | effect on NAS-treated cells compared with Example 5 [1]: similar, if slightly reduced, effect; NO production (nitrite+nitrate) [1]: increased NO production in a dose-dependent manner |
| 625 (294) ng hr/mL | 138 (123) ng/mL | – | CC(C)[C@H](N)C(=O)O[C@@H]([C@H](C)OC(=O)[C@@H](N)C(C)C)[C@H]1CNc2nc(N)[nH]c(=O)c2N1 [Example 10, 2-Amino-3-methyl-butyric acid 2-(2-amino-3-methyl-butyryloxy)-1-(2-amino-4-oxo-3,4,5,6,7,8-hexahydro-pteridin-6-yl)-propyl ester trihydrochloride] | Tmax [2, 7]: 1.83 h |
| 617 (336) ng hr/mL | 115 (65.4) ng/mL | 1.5 (0.09) hr | C[C@H](OC(=O)[C@@H](N)CCCCN)[C@H](OC(=O)[C@@H](N)CCCCN)[C@H]1CNc2nc(N)[nH]c(=O)c2N1 [Example 11, 2,6-Diamino-hexanoic acid 2-(2-amino-4-oxo-3,4,5,6,7,8-hexahydro-pteridin-6-yl)-2-(2,6-diamino-hexanoyloxy)-1-methyl-ethyl ester pentahydrochloride] | – |
| 438 (211) ng hr/mL | 73.6 (42.9) ng/mL | 3.0 (1.0) hr | C[C@H](OC(=O)[C@@H]1CCCN1)[C@H](OC(=O)[C@@H]1CCCN1)[C@H]1CNc2nc(N)[nH]c(=O)c2N1 [Example 12, Pyrrolidine-2-carboxylic acid 1-(2-amino-4-oxo-3,4,5,6,7,8-hexahydro-pteridin-6-yl)-2-(pyrrolidine-2-carbonyloxy)-propyl ester trihydrochloride] | – |
